The record followed here is patent publication US8497271B2, “Modulators of G protein-coupled receptor 88” (Bristol-Myers Squibb Company, priority 2009, dated 2013).

In this experiment the target is G protein-coupled receptor 88 (Homo sapiens, UniProt Q9GZN0). Put plainly: EC50 of select compounds as GPR88 modulators (Table 2; GTPγS assay and cAMP HTRF assay are both described, and the one used is not stated). The following applies: read-out: Range (EC50). Type of experiment: cell-based. The procedure: 96 well GTPγS assay plates were purchased from Perkin Elmer. Wheat Germ Agglutinin PVT SPA beads and ^35S-GTPγS were purchased from Amersham GDP, GTPγS and all buffer reagents were from Sigma. 384 well white NBS plates were purchased from corning. Pertussis toxin was purchased from Calbiochem. All cell culture reagents were purchased from Invitrogen. Forskolin was purchased from Sigma. The cAMP HTRF kit was purchased fron Cisbio International.
The GTPγS assay buffer consisted of 10 mM MgCl2, 180 mM NaCl, 200 uM GDP, 0.167 mg/ml DTT, 1 mM EGTA and 20 mM HEPES pH7.4. This buffer was used for dilution of membranes, beads, and ^35S GTPγS components. To each well of the 96 well assay plate 48 ul assay buffer, 2 ul of 100× compound, 50 ul membrane solution (0.2 ug/ul), 50 ul ^35S GTPγS solution (0.8 nM) and 50 ul of SPA beads (10 mg/ml). Non-specific binding was determined by the addition of cold GTPγS to control wells. The plates were sealed with clear sealing tape and incubated at room temperature for 1 hour. GTPγS activity was detected using a Wallac Micro-Beta Trilux liquid scintillation counter. Non-specific binding was determined using 10 uM cold GTPγS.
The cAMP HTRF assay is modified from the Cisbio International kit procedure 62AM4PEJ. Assay plates were prepared by stamping 0.1 ul of 100× compound stock solutions diluted in DMSO or DMSO alone into 384 well NBS plates. The cAMP HTRF assay was performed using cells in suspension. The cAMP HTRF assay buffer consisted of Hank's Balanced Salt Solution (HBSS), 2 mM CaCl2, 5 mM MgCl2, 20 mM HEPES and 1 mM 3-isobutyl-1-methylxanthine (IBMX) (added fresh at the time of assay). For pertussis toxin treatment pertussis toxin (100 ng/ml) was added to culture medium for 16 hours prior to assay. Confluent cells were disrupted with cell dissociation buffer count cells then centrifuged at 1000×g for minutes. The cell pellet was resuspended in assay buffer alone for basal cAMP measurements or with 0.75 uM forskolin (added immediately prior to addition to wells) for addition to all other wells. Using a Multidrop 384 (Lab systems) 10 ul of cell suspension was added to each well containing compound or DMSO. The plates were incubated at room temperature for 30 minutes covered. During this time the cAMP standard curve was prepared as per manufacturer's instruction. At the end of the incubation 10 ul of anti-cAMP cryptate and 10 ul cAMP-XL, diluted in manufacturer's lysis buffer, were added to each well. The plated were incubated at room temperature for 60 minutes covered then read on an Envision plate reader (Perkin Elmer) and the 665 nm/620 nm fluorescence ratio determined Fluorescence ratio values were converted to molar cAMP concentrations from the standard curve using the GraphPad Prism program.

Read-outs that look alike come from different tables or passages of the source.

G protein-coupled receptor 88, sequence (Q9GZN0 whole entry, species assumed): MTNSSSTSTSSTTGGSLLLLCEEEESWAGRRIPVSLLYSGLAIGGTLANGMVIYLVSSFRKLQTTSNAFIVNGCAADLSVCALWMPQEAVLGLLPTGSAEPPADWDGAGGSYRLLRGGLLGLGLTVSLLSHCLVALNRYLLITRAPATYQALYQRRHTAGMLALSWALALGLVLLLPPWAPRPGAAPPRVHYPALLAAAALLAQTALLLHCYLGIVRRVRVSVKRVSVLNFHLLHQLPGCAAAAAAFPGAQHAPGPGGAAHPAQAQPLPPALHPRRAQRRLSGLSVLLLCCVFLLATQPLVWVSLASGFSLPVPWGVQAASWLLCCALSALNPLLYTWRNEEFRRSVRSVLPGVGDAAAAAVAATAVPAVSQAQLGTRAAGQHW

For `Cc1ccc(-c2ccc([C@H](CO)NC(=O)C3CC3c3cccs3)cc2)cc1` (stereo in doubt) [Example 5, (1S,2S)-2-Thiophen-2-yl-cyclopropanecarboxylic acid [(R)-2-hydroxy-1-(4′-methyl-biphenyl-4-yl)-ethyl]-amide], for the setting “numeric value printed”, the EC50 came to 81 nM. For `CCC(CC)COc1ccc([C@H](CO)NC(=O)[C@H]2C[C@@H]2c2ccccc2)c(OC)c1` [Example 3, (1S,2S)-2-Phenyl-cyclopropanecarboxylic acid {(R)-1-[4-(2-ethyl-butoxy)-2-methoxy-phenyl]-2-hydroxy-ethyl}-amide], for the setting “class symbol X”, the EC50 lay in the range of 62 to 130 nM. On to `CC[C@H](C)COc1ccc([C@H](CO)NC(=O)[C@H]2C[C@@H]2c2cccs2)cc1` [Example 6, (1S,2S)-2-Thiophen-2-yl-cyclopropanecarboxylic acid {(R)-2-hydroxy-1-[4-((S)-2-methyl-butoxy)-phenyl]-ethyl}-amide], for which the EC50 (numeric value printed) was 124 nM. Turning to `COc1cc(-c2ccc(C)cc2)ccc1[C@H](CO)NC(=O)[C@H]1C[C@@H]1c1cccs1` [Example 12, (1S,2S)-2-Thiophen-2-yl-cyclopropanecarboxylic acid [(R)-2-hydroxy-1-(3-methoxy-4′-methyl-biphenyl-4-yl)-ethyl]-amide], the EC50 (class symbol X) fell in the range of 62 to 130 nM. On to `CCCC(C)COc1ccc([C@H](CO)NC(=O)[C@H]2C[C@@H]2c2cccs2)cc1` (stereo partly drawn) [Example 15, (1S,2S)-2-Thiophen-2-yl-cyclopropanecarboxylic acid {(R)-2-hydroxy-1-[4-(2-methyl-pentyloxy)-phenyl]-ethyl}-amide], for which the EC50 (numeric value printed) was determined as 74 nM.
